In the SangsterLogP compilation:
Where a SMILES comes first, the peptide text is derived from it. [ ]: non-standard residue; d: D form. Orn = NCCC[CH](N)C(=O)O

Assay: method code SF-AS, from DOI: 10.1002/jps.2600830720, PMID: 7965659
Details: pH 2.0

Compound | logD
CC(=O)N[C@@H](CC(=O)O)C(=O)N[C@@H](Cc1ccccc1)C(=O)N[C@@H](CC(C)C)C(N)=O | 0.4
CC[C@H](C)[C@H](NC(=O)[C@H](CCC(=O)O)NC(C)=O)C(=O)N[C@@H](Cc1ccccc1)C(N)=O (Ac-Glu-Ile-Phe-NH2) | 0.43
CC(=O)N[C@@H](CC(C)C)C(=O)N[C@@H](CCC(=O)O)C(=O)N[C@@H](Cc1ccccc1)C(N)=O | 0.48
CC(=O)N[C@@H](CC(C)C)C(=O)N[C@@H](CC(=O)O)C(=O)N[C@@H](CC(C)C)C(N)=O | 0.16
CC(=O)N[C@@H](Cc1ccccc1)C(=O)N[C@@H](CC(=O)O)C(=O)N[C@@H](CC(C)C)C(N)=O | 0.39
CCC(C)C(NC(C)=O)C(=O)NC(CC(C)C)C(=O)NC(CC(=O)O)C(N)=O (stereo not drawn) (Ac-Ile-Leu-Asp-NH2; configuration not given here) | -0.04
CC[C@H](C)[C@H](NC(=O)[C@H](CC(=O)O)NC(C)=O)C(=O)N[C@@H](Cc1ccccc1)C(N)=O | 0.61
CCC(C)C(NC(=O)C(CC(C)C)NC(C)=O)C(=O)NC(CCC(=O)O)C(N)=O (stereo not drawn) (Ac-Leu-Ile-Glu-NH2; configuration not given here) | 0.07
CC(=O)NC(Cc1ccccc1)C(=O)NC(CCC(=O)O)C(=O)NC(Cc1ccccc1)C(N)=O (stereo not drawn) (Ac-Phe-Glu-Phe-NH2; configuration not given here) | 0.65
CC(=O)N[C@@H](CCC(=O)O)C(=O)N[C@@H](Cc1ccccc1)C(=O)N[C@@H](CC(C)C)C(N)=O | 0.32

Same assay, conditions: pH 7.0

logD | Compound
-0.28 | CSCC[C@H](NC(C)=O)C(=O)N[C@H](C(N)=O)C(C)C
-0.21 | CC[C@H](C)[C@H](NC(C)=O)C(=O)N[C@@H](C)C(=O)N[C@H](C(N)=O)C(C)C

The next lines start with the molecule.

Compound | logD
CSCC[C@H](NC(C)=O)C(=O)N[C@@H](Cc1ccccc1)C(N)=O | 0.42
CSCC[C@H](NC(=O)[C@H](C)NC(C)=O)C(=O)N[C@H](C(N)=O)C(C)C | -0.63
CC[C@H](C)[C@H](NC(C)=O)C(=O)N[C@@H](CCSC)C(=O)N[C@@H](Cc1ccccc1)C(N)=O (Ac-Ile-Met-Phe-NH2) | 1.28

Same assay, conditions: pH 10.0

logD | Compound
-0.43 | CC[C@H](C)[C@H](NC(=O)[C@H](CCCN)NC(C)=O)C(=O)N[C@H](C(N)=O)C(C)C
-0.24 | CC[C@H](C)[C@H](NC(C)=O)C(=O)N[C@@H](Cc1c[nH]cn1)C(=O)N[C@H](C(N)=O)C(C)C
0.31 | CC(=O)NC(Cc1c[nH]c2ccccc12)C(=O)NC(Cc1cnc[nH]1)C(=O)NC(C(N)=O)C(C)C (stereo not drawn) (Ac-Trp-His-Val-NH2; configuration not given here)
-0.92 | CC(=O)NCC(=O)N[C@@H](Cc1ccccc1)C(=O)N[C@@H](Cc1c[nH]cn1)C(N)=O
0.64 | CC(=O)NC(Cc1ccccc1)C(=O)NC(Cc1c[nH]cn1)C(=O)NC(CC(C)C)C(N)=O (stereo not drawn) (Ac-Phe-His-Leu-NH2; configuration not given here)

Further lines, the molecule ahead of its results:

Compound | logD
CC(=O)NC(Cc1ccccc1)C(=O)NC(Cc1c[nH]c2ccccc12)C(=O)NC(Cc1cnc[nH]1)C(N)=O (stereo not drawn) (Ac-Phe-Trp-His-NH2; configuration not given here) | 1
CC(=O)NC(CCCN)C(=O)NC(Cc1ccccc1)C(=O)NC(CC(C)C)C(N)=O (stereo not drawn) (Ac-[Orn]-Phe-Leu-NH2; configuration not given here) | 0.54
CCC(C)C(NC(=O)C(Cc1c[nH]cn1)NC(C)=O)C(=O)NC(Cc1ccccc1)C(N)=O (stereo not drawn) (Ac-His-Ile-Phe-NH2; configuration not given here) | 0.44
CC(=O)NC(CCCN)C(=O)NC(Cc1ccccc1)C(N)=O (stereo unspecified) | -0.41
CC(=O)NC(CC(C)C)C(=O)NC(CCCN)C(=O)NC(Cc1ccccc1)C(N)=O (stereo unspecified) (Ac-Leu-[Orn]-Phe-NH2; configuration not given here) | 0.53
CC(=O)NC(CCCN)C(=O)NC(CC(C)C)C(N)=O (stereo unspecified) (Ac-[Orn]-Leu-NH2; configuration not given here) | -0.71
